Results published in the supplement of paper PMC9663587.

Key:
Rucaparib = compound: CNCc1ccc(-c2[nH]c3cc(F)cc4c3c2CCNC4=O)cc1 [Rucaparib]
Alpelisib/BYL719 = compound: Cc1nc(NC(=O)N2CCC[C@H]2C(N)=O)sc1-c1ccnc(C(C)(C)C(F)(F)F)c1 [Alpelisib/BYL719]
Cediranib/AZD2171 = compound: COc1cc2c(Oc3ccc4[nH]c(C)cc4c3F)ncnc2cc1OCCCN1CCCC1 [Cediranib/AZD2171]
THZ1 [1] = compound: T1, CN(C)C/C=C/C(=O)Nc1ccc(C(=O)Nc2cccc(Nc3ncc(Cl)c(-c4c[nH]c5ccccc45)n3)c2)cc1 [THZ1]
[2] = compound: CC(=O)Nc1cccc(-n2c(=O)n(C3CC3)c(=O)c3c(Nc4ccc(I)cc4F)n(C)c(=O)c(C)c32)c1
BVD523 = compound: CC(C)Nc1cc(-c2c[nH]c(C(=O)N[C@H](CO)c3cccc(Cl)c3)c2)c(Cl)cn1 [BVD523]
[3] = compound: CO[C@@H](C)Cn1c(=O)n(C)c2cnc3ccc(-c4cncc(C(C)(C)O)c4)cc3c21
Saracatinib/AZD0530 = compound: CN1CCN(CCOc2cc(OC3CCOCC3)c3c(Nc4c(Cl)ccc5c4OCO5)ncnc3c2)CC1 [Saracatinib/AZD0530]
THZ531 [4] = compound: T2, CN(C)C/C=C/C(=O)Nc1ccc(C(=O)N2CCC[C@@H](Nc3ncc(Cl)c(-c4c[nH]c5ccccc45)n3)C2)cc1 [THZ531]
[5] = compound: CCCCOc1c(C(=O)c2c(F)cc(C)cc2F)c[nH]c2nncc1-2
AZD1775 = compound: C=CCn1c(=O)c2cnc(Nc3ccc(N4CCN(C)CC4)cc3)nc2n1-c1cccc(C(C)(C)O)n1 [AZD1775]
[6] = compound: COc1ccc2c(c1)[C@]1(C[C@H]1c1ccc3c(/C=C/c4ccc(CN5C[C@@H](C)O[C@@H](C)C5)cc4)n[nH]c3c1)C(=O)N2
[7] = compound: CCc1cnn2c(NCc3ccc[n+]([O-])c3)cc(N3CCCC[C@H]3CCO)nc12; assay: increase in dead-cell fraction, 72 h; higher = more death;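 note: breast cancer cell lines in 384-well plates, stained with Hoechst plus LIVE/DEAD far red dye and imaged, cells above an LDR intensity threshold counted dead, Hoechst-negative corpses included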
[8] = compound: CC(=O)c1c(C)c2cnc(Nc3ccc(N4CCNCC4)cn3)nc2n(C2CCCC2)c1=O; assay: as above
BSJ-03-123 = compound: CC(=O)c1c(C)c2cnc(Nc3ccc(N4CCN(CCOCCOCCOCCNC(=O)COc5cccc6c5C(=O)N(C5CCC(=O)NC5=O)C6=O)CC4)cn3)nc2n(C2CCCC2)c1=O [BSJ-03-123]; assay: as above
THZ1 [9] = compound: T1, THZ1; assay: as above
LEE011/Ribociclib = compound: CN(C)C(=O)c1cc2cnc(Nc3ccc(N4CCNCC4)cn3)nc2n1C1CCCC1 [LEE011/Ribociclib]; assay: as above
THZ531 [10] = compound: T2, THZ531; assay: as above
YKL-5-124 = compound: C=CC(=O)Nc1ccc(C(=O)Nc2[nH]nc3c2CN(C(=O)N[C@H](CN(C)C)c2ccccc2)C3(C)C)cc1 [YKL-5-124]; assay: as above
Neratinib/HKI272 = compound: CCOc1cc2ncc(C#N)c(Nc3ccc(OCc4ccccn4)c(Cl)c3)c2cc1NC(=O)/C=C/CN(C)C [Neratinib/HKI272]; assay: as above
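Throughout, for GR50, 72 h: breast cancer and non-malignant breast epithelial cell lines, Deep Dye Drop or Dye Drop imaging, nine half-log doses, GR normalized to time-zero plates and DMSO-only controls.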

CAMA1
GR50, 72 h (Rucaparib): > 10 µM | GR50, 72 h (Alpelisib/BYL719): > 10 µM | GR50, 72 h (Cediranib/AZD2171): 5.02 µM | GR50, 72 h (THZ1 [1]): 0.0336 µM | GR50, 72 h [2]: > 1 µM | GR50, 72 h (BVD523): 2.73 µM | GR50, 72 h [3]: < 0.001 µM | GR50, 72 h (Saracatinib/AZD0530): > 10 µM | GR50, 72 h (THZ531 [4]): 0.139 µM | GR50, 72 h [5]: < 0.001 µM | GR50, 72 h (AZD1775): 5.45 µM | GR50, 72 h [6]: 0.00356 µM | increase in dead-cell fraction ([7]; 0.0001 µM): -0.0004 | increase in dead-cell fraction ([7]; 0.0003162 µM): -0.0044 | increase in dead-cell fraction ([7]; 0.001 µM): 0.0031 | increase in dead-cell fraction ([7]; 0.003162 µM): 0.0113 | increase in dead-cell fraction ([7]; 0.01 µM): 0.0533 | increase in dead-cell fraction ([7]; 0.03162 µM): 0.153 | increase in dead-cell fraction ([7]; 0.1 µM): 0.46 | increase in dead-cell fraction ([7]; 0.3162 µM): 0.518 | increase in dead-cell fraction ([7]; 1 µM): 0.56 | increase in dead-cell fraction ([8]; 0.0003162 µM): -0.0052 | increase in dead-cell fraction ([8]; 0.001 µM): 0.0045 | increase in dead-cell fraction ([8]; 0.003162 µM): -0.006 | increase in dead-cell fraction ([8]; 0.01 µM): -0.0044 | increase in dead-cell fraction ([8]; 0.03162 µM): -0.0065 | increase in dead-cell fraction ([8]; 0.1 µM): -0.0028 | increase in dead-cell fraction ([8]; 0.3162 µM): 0.0013 | increase in dead-cell fraction ([8]; 1 µM): 0 | increase in dead-cell fraction ([8]; 3.162 µM): -0.0024 | increase in dead-cell fraction (BSJ-03-123; 0.001 µM): -0.0067 | increase in dead-cell fraction (BSJ-03-123; 0.003162 µM): -0.0023 | increase in dead-cell fraction (BSJ-03-123; 0.01 µM): 0.0007 | increase in dead-cell fraction (BSJ-03-123; 0.03162 µM): -0.0025 | increase in dead-cell fraction (BSJ-03-123; 0.1 µM): 0.0035 | increase in dead-cell fraction (BSJ-03-123; 0.3162 µM): -0.0021 | increase in dead-cell fraction (BSJ-03-123; 1 µM): 0.0045 | increase in dead-cell fraction (BSJ-03-123; 3.162 µM): -0.0077 | increase in dead-cell fraction (BSJ-03-123; 10 µM): 0.0255 | increase in dead-cell fraction (THZ1 [9]; 0.0001 µM): -0.0002 | increase in dead-cell fraction (THZ1 [9]; 0.0003162 µM): 0.0023 | increase in dead-cell fraction (THZ1 [9]; 0.001 µM): -0.002 | increase in dead-cell fraction (THZ1 [9]; 0.003162 µM): -0.0017 | increase in dead-cell fraction (THZ1 [9]; 0.01 µM): 0.0023 | increase in dead-cell fraction (THZ1 [9]; 0.03162 µM): 0.0135 | increase in dead-cell fraction (THZ1 [9]; 0.1 µM): 0.0187 | increase in dead-cell fraction (THZ1 [9]; 0.3162 µM): 0.0397 | increase in dead-cell fraction (THZ1 [9]; 1 µM): 0.187 | increase in dead-cell fraction (LEE011/Ribociclib; 0.001 µM): -0.0064 | increase in dead-cell fraction (LEE011/Ribociclib; 0.003162 µM): -0.0056 | increase in dead-cell fraction (LEE011/Ribociclib; 0.01 µM): -0.0011 | increase in dead-cell fraction (LEE011/Ribociclib; 0.03162 µM): -0.0009 | increase in dead-cell fraction (LEE011/Ribociclib; 0.1 µM): 0.006 | increase in dead-cell fraction (LEE011/Ribociclib; 0.3162 µM): 0.0058 | increase in dead-cell fraction (LEE011/Ribociclib; 1 µM): 0.011 | increase in dead-cell fraction (LEE011/Ribociclib; 3.162 µM): 0.0045 | increase in dead-cell fraction (LEE011/Ribociclib; 10 µM): 0.0049 | increase in dead-cell fraction (THZ531 [10]; 0.0001 µM): 0.001 | increase in dead-cell fraction (THZ531 [10]; 0.0003162 µM): -0.0014 | increase in dead-cell fraction (THZ531 [10]; 0.001 µM): -0.0002 | increase in dead-cell fraction (THZ531 [10]; 0.003162 µM): -0.005 | increase in dead-cell fraction (THZ531 [10]; 0.01 µM): 0.0035 | increase in dead-cell fraction (THZ531 [10]; 0.03162 µM): 0.0054 | increase in dead-cell fraction (THZ531 [10]; 0.1 µM): 0.0126 | increase in dead-cell fraction (THZ531 [10]; 0.3162 µM): 0.0499 | increase in dead-cell fraction (THZ531 [10]; 1 µM): 0.189 | increase in dead-cell fraction (YKL-5-124; 0.001 µM): 0.0009 | increase in dead-cell fraction (YKL-5-124; 0.003162 µM): 0.0059 | increase in dead-cell fraction (YKL-5-124; 0.01 µM): 0.0122 | increase in dead-cell fraction (YKL-5-124; 0.03162 µM): 0.0047 | increase in dead-cell fraction (YKL-5-124; 0.1 µM): 0.006 | increase in dead-cell fraction (YKL-5-124; 0.3162 µM): 0.0148 | increase in dead-cell fraction (YKL-5-124; 1 µM): -0.0034 | increase in dead-cell fraction (YKL-5-124; 3.162 µM): 0.01 | increase in dead-cell fraction (YKL-5-124; 10 µM): 0.322 | increase in dead-cell fraction (Neratinib/HKI272; 0.0003162 µM): 0.0013 | increase in dead-cell fraction (Neratinib/HKI272; 0.001 µM): 0.0021 | increase in dead-cell fraction (Neratinib/HKI272; 0.003162 µM): -0.0002 | increase in dead-cell fraction (Neratinib/HKI272; 0.01 µM): 0.0022 | increase in dead-cell fraction (Neratinib/HKI272; 0.03162 µM): 0.0081 | increase in dead-cell fraction (Neratinib/HKI272; 0.1 µM): 0.0011 | increase in dead-cell fraction (Neratinib/HKI272; 0.3162 µM): 0.0067 | increase in dead-cell fraction (Neratinib/HKI272; 1 µM): 0.0021 | increase in dead-cell fraction (Neratinib/HKI272; 3.162 µM): 0.0342
